Assay results from patent US4438117A, “2-Substituted thio-4,5-diarylpyrimidines” (E. I. Du Pont de Nemours and Company, priority 1980, dated 1984).

Key:
[1] = system: Adjuvant-Induced Arthritis in Rats; assay: Established adjuvant-induced arthritis in rats (antiinflammatory activity, paw volume); format: in vivo, Charles River Lewis male rats; conditions: oral by gavage, that day and 6 following days; for AA % Reduction @ 27 mg/kg: % reduction in paw volume at 27 mg/kg, * p <0.05 (Examples 2, 3, 6), ** p >0.1 (Example 9) compared to control
Protocol: A procedure for detecting and comparing the antiinflammatory activity of compounds in this series and standard drugs for which there is a good correlation with human efficacy is the adjuvant-induced arthritis test in rats.
Charles River Lewis male rats (130-150 grams) are injected subcutaneously in plantar area of the right hind paw with 0.1 ml of adjuvant (Difco heat-killed, lyophilized Mycobacterium butyricum suspended in mineral oil 5 mg/ml). 20 Non-arthritic controls are injected with mineral oil. The animals are held for 2 weeks to allow development of arthritis. Paw volumes (uninjected, left hind paw) are measured and the adjuvant injected rats are culled and distributed to treatment groups of 10 of equal disease severity. Non-arthritic controls are distributed to 2 groups of 10. The rats are given oral doses of compound or PVA-Acacia (Polyvinyl Alcohol 1%, Gum Acacia, U.S.P. 5%, Methylparaben 0.5%) (10 ml/kg) by gavage on that day and on the 6 following days. One day after the last dose the paw volumes (uninjected, left hind paw) are measured using a Ugo Basile Volume Differential Meter Model 7101. [formula]
Dose-response regression lines of the % decrease are plotted on semi-log paper by visual fit and the ED50% decrease from control paw volume is determined by inspection. Alternatively, % reduction in paw volume was measured at a dose of 27 mg/kg.

phenylquinone writhing = assay: Phenylquinone writhing test (analgesic activity); format: in vivo, female white mice; conditions: Mus musculus; oral in 1% methylcellulose, fasted mice, observed from 30 minutes after dosing for 10 minutes; effective analgesic dose for 50% of the mice; read-out: PQW ED50
Protocol: A procedure for detecting and comparing the analgesic activity of compounds in this series and standard drugs for which there is a good correlation with human efficacy is the phenylquinone writhing test.
The phenylquinone writhing test, modified from Siegmund, et al., Proc. Soc. Exp. Biol. Med. 95, 729 (1957), was employed. A test compound suspended in 1% methylcellulose was given orally to fasted (17-21 hours) female white mice, 5-20 animals per double blind test. Aqueous (0.01% phenyl-p-benzoquinone) phenylquinone was injected intraperitoneally 24 minutes later using 0.20 ml per mouse. […] The effective analgesic dose for 50% of the mice (ED50) was calculated by the moving average method of Thompson, W. R., Bact. Rev., 11, 115-145 (1947).

Structure (SMILES) | AA % Reduction @ 27 mg/kg [1] | ED50 (phenylquinone writhing) | ED50 ([1]; Rattus norvegicus, ED50% decrease from control paw volume, uninjected left hind paw, read-out: AA ED50)
COc1ccc(-c2cnc(SC(F)(F)F)nc2-c2ccc(OC)cc2)cc1 [Example 6] | 32% | 48 mg/kg | 
COc1ccc(-c2nc(SC(F)(F)F)ncc2-c2ccc(Cl)cc2)cc1 [Example 7] | 0% | 49 mg/kg | 
Fc1ccc(-c2cnc(SC(F)(F)F)nc2-c2ccc(F)cc2)cc1 [Example 2, 2-Trifluoromethylthio-4,5-bis(4-fluorophenyl)-pyrimidine] | 37% | > 108 mg/kg | 
Fc1ccc(-c2cnc(SC(F)(F)C(F)F)nc2-c2ccc(F)cc2)cc1 [Example 4] | 0% | 45 mg/kg | 
COc1ccc(-c2cnc(SC)nc2-c2ccc(OC)cc2)cc1 [Example 9] | 16% | 108 mg/kg | 
COc1ccc(-c2cnc(SC(F)(F)C(F)F)nc2-c2ccc(OC)cc2)cc1 [Example 1, 2-(1,1,2,2-Tetrafluoroethylthio)-4,5-bis(4-methoxyphenyl)pyrimidine] |  | > 108 mg/kg | 25 mg/kg
COc1ccc(-c2nc(SC)ncc2-c2ccc(Cl)cc2)cc1 [Example 3, 2-Methylthio-4-(4-methoxyphenyl)-5-(4-chlorophenyl)-pyrimidine] | 39% | > 108 mg/kg | 
